According to EP1806135A2, “The use of a protein tyrosine inhibitor such as genistein in the treatment of diabetic retinopathy or ocular inflammation” (THE JOHNS HOPKINS UNIVERSITY SCHOOL OF MEDICINE, priority 1998, dated 1999):

Key:
retina = assay: Retinal toxicity by electroretinography after oral administration; type: in vivo; details: orally administered, 75 mg/kg/day to 300 mg/kg/day over a period of six months, Zucker diabetic fatty rats
Source text: (§1) An advantage of genistein is that it is very safe and efficacious. […] Also, no effect of orally administered genistein was found with respect to the weight of the ovaries and the uterus in female rats.

[1] = Food intake, body weight and organ weights after oral administration; type: in vivo, rats
Source text: as §1

67 kDa band = assay: Total protein profile of retinal homogenate (gel electrophoresis, Coomassie brilliant blue staining); type: in vivo; details: 50 mg/kg intraperitoneally, repeated after two hours; retina taken 24 hours later; Zucker diabetic fatty rat
Source text: (§2) Six pair of litter mates of Zucker rats, i.e., six male retired breeder Zucker diabetic fatty (ZDF, fa/fa) rats and six male retired breeder lean Zucker (fa/+) rats, were obtained (Genetic Models, Inc., Indianapolis, IN). The Zucker diabetic fatty rat develops a microvascular retinopathy involving basement membrane thickening of retinal capillaries, pericyte loss, capillary hypercellularity, and increased endothelial intercellular junctions (Danis et al., Invest. Ophthalmol. Vis. Sci. 34:2367-2371 (1993); and Dosso et al., Diabetologia 33:137-144 (1990)). The microvascular changes known to occur in the Zucker diabetic fatty rats are associated with the elevated levels of VEGF and platelet-derived growth factor (PDGF) and with activation of PTK pathways, especially pathways that include phosphatidylinositol-3 kinase (PI3-K) and mitogen-activated protein kinase (MAPK). Each pair of litter mates was between six and seven months of age. Rats were fed with a diet of Purina 5008 rat chow. […] The average blood glucose value was more than 500 mg/dl for the Zucker diabetic fatty rats and 120 mg/dl for the control lean rats as measured by glucose oxidase assay at the time of death (Danis et al. (1993), supra). […]
Protein concentrations were measured by the Pierce BCA method. […]

[2] = tested on: tyrosine phosphorylated proteins; assay: Western immunoblot analysis of tyrosine phosphorylated proteins in the retina; type: in vivo, Zucker diabetic fatty rat; details: 50 mg/kg intraperitoneally, repeated after two hours; diabetic rats compared with the non-treated group
Source text: (§3) Six pair of litter mates of Zucker rats, i.e., six male retired breeder Zucker diabetic fatty (ZDF, fa/fa) rats and six male retired breeder lean Zucker (fa/+) rats, were obtained (Genetic Models, Inc., Indianapolis, IN). The Zucker diabetic fatty rat develops a microvascular retinopathy involving basement membrane thickening of retinal capillaries, pericyte loss, capillary hypercellularity, and increased endothelial intercellular junctions (Danis et al., Invest. Ophthalmol. Vis. Sci. 34:2367-2371 (1993); and Dosso et al., Diabetologia 33:137-144 (1990)). The microvascular changes known to occur in the Zucker diabetic fatty rats are associated with the elevated levels of VEGF and platelet-derived growth factor (PDGF) and with activation of PTK pathways, especially pathways that include phosphatidylinositol-3 kinase (PI3-K) and mitogen-activated protein kinase (MAPK). Each pair of litter mates was between six and seven months of age. Rats were fed with a diet of Purina 5008 rat chow. The animals were treated in accordance with The Association for Research in Vision and Ophthalmology (ARVO) Statement for the Use of Animals in Ophthalmic and Vision Research. The average blood glucose value was more than 500 mg/dl for the Zucker diabetic fatty rats and 120 mg/dl for the control lean rats as measured by glucose oxidase assay at the time of death (Danis et al. (1993), supra). […]

PI3-K = assay: Western immunoblot analysis of immunoprecipitated tyrosine phosphorylated proteins in the retina: PI3-K; type: in vivo, Zucker diabetic fatty rat; details: 50 mg/kg intraperitoneally, repeated after two hours; especially in the diabetic rat
Source text: as §2, with “(MAPK).” for “(MAPK). Each pair of litter mates was between six and seven months of age. Rats were fed with a diet of Purina 5008 rat chow.”
(§4) The retinal tissue samples were added to immunoprecipitation buffer (1 % Triton X-100, 150 mM NaCl, 10 mM Tris, pH 7.4, 1 mM EGTA, 0.2 mM sodium vanadate, 0.2 mM PMSF, 0.5 % NP-40) and homogenized. […] Protein concentrations were measured by the Pierce BCA method. […]

MAPK = assay: Western immunoblot analysis of immunoprecipitated tyrosine phosphorylated proteins in the retina: MAPK; type: in vivo, Zucker diabetic fatty rat; details: 50 mg/kg intraperitoneally, repeated after two hours; treated group compared with the non-treated animals group
Source text: as §2, with “(MAPK).” for “(MAPK). Each pair of litter mates was between six and seven months of age. Rats were fed with a diet of Purina 5008 rat chow.”
as §4

PCNA [3] = assay: Western immunoblot analysis of PCNA in the retina; type: in vivo; details: 50 mg/kg intraperitoneally, repeated after two hours; Zucker diabetic fatty rat retina; not down to the lean control level
Source text: as §3

PCNA [4] = assay: Immunohistochemical analysis of PCNA in the retina; type: in vivo; details: genistein treated diabetic rats compared with untreated Zucker diabetic fatty rats
Method: Two pairs of rats were used for immunohistochemical analysis of PCNA in the retina. Under deep anesthesia with ketamine and xylazine, the four rats were perfused transcardially with 0.1 M phosphate-buffered saline (PBS; pH 7.4) containing 1 mM orthovanadate, followed by perfusion of 2 % paraformaldehyde in 0.1 M PBS for fixation. The eyes were then removed and immersed in the same fixative for 30 min. The anterior segments were removed and the posterior segments were transferred into a graded sucrose solution from 5 % to 15 % for 2 hrs and incubated in 20 % sucrose solution overnight at 4°C. After cryoprotection, the eyes were molded in O.C.T. compound (Miles, Inc., Elkhart, IN) and frozen in isopentane with dry ice. The posterior segments were cut into 8 µm sections.
The sections were treated with 3 % peroxide to block intrinsic peroxidase, and incubated with 2 % normal horse serum for 20 min. After rinsing in 0.1 M PBS three times, the sections were incubated overnight at 4°C with anti-PCNA antibody (1:1,000 dilution). After the incubation, the sections were rinsed in 0.1 M PBS, and incubated with biotinylated anti-mouse IgG antibody (Vector Laboratories, Inc., Burlingame, CA; 1:500 dilution) for 30 min at room temperature, and then incubated with […] streptavidin (Kirkegaad & Perry Laboratories, Inc., Gaithersburg, MD; 1:500 dilution). […]

pigmented rabbits = assay: Ocular inflammation (vitreous cavity haze) after intravitreal injection of homologous dermal fibroblasts; type: in vivo, rabbit; details: graded 3 days after fibroblast injection
Method: The principles of laboratory animal care (NIH publication No. 86-23, revised 1985) were followed. For all studies, pigmented rabbits, weighing 2.5-3 kg were used. The animals were anesthetized with a cocktail of ketamine (25 mg/kg) and xylazine (5 mg/kg), and the pupils were dilated with topical 1 % tropicamide and 0.5% phenylephrine.
Vitreous liquefaction was caused by injection of SF6 gas. After an anterior chamber paracentesis (0.1 ml), pure SF6 gas (0.3 ml) was injected. The 30-gauge needle was inserted inferiorly in order to maximize the vitreous liquefaction.
Rabbit dermal fibroblasts were obtained from rabbit rump biopsy material prepared under sterile conditions: Primary cultures were incubated in Dulbecco's modified Eagle's medium (DMEM) with 30% calf serum, antibiotics (penicillin G sodium, streptomycin sulfate) and antimycotics (amphotericin B) under a humid atmosphere of 5% carbon dioxide in air for 72 hours. The medium was then changed to DMEM with 10% calf serum, antibiotics and antimycotics as above. The cultures were passaged weekly. Cells were harvested by incubating them with 3.5 ml of 0.04% trypsin for 4 minutes and collecting the cells in stop media. The dispersed cells were centrifuged at 1,000 rpm for 5 minutes and resuspended in 1 ml of phosphate-buffered saline. After cell counts of a 0.05 ml aliquot, the suspension was diluted to achieve a final concentration of 2.5x10^4 cells in a 0.1 ml of phosphate-buffered saline.
Fourteen days after the injection of SF6 gas, a 30-gauge needle was inserted 3 mm posterior to the corneoscleral limbus in the superonasal quadrant under microscopic control. With the bevel of the needle directed upward, 2.5x10^4 homologous rabbit dermal fibroblasts suspended in 0.1 ml sterile phosphate-buffered saline were injected just in front of the optic nerve head. This was performed in both eyes of all rabbits. The rabbits were immediately placed on their backs for 1 hour to allow the cells to settle over the vitreous surface. […]

[5] = oral administration, male and female rats
[6] = orally administered, female rats

Compound | toxicity to the retina as measured by electroretinography (retina) | body weight [1, 5] | food intake [1, 5] | weight of the ovaries [1, 6] | weight of the uterus [1, 6] | amount of staining of the 67 kDa band in total protein profiles (67 kDa band) | staining of tyrosine phosphorylated proteins at 50, 66, 97 and 116 kDa [2] | tyrosine phosphorylated PI3-K stained band at 85 kDa (PI3-K) | level of tyrosine phosphorylated MAPK at 44 kDa (MAPK) | level of PCNA at 36 kDa (PCNA [3]) | PCNA immunopositive cells in the retina (PCNA [4]) | eyes with severe inflammation (vitreous haze) (pigmented rabbits; group 1: 23 µg intravitreally 1 hour (prophylactic) after fibroblast injection, control eyes 47.1%, p<0.01) [%] | eyes with severe inflammation (vitreous haze) (pigmented rabbits; group 2: 23 µg intravitreally 2 days (therapeutic) after fibroblast injection, control eyes 50%, p>0.05) [%] | eyes with severe inflammation (vitreous haze) (pigmented rabbits; group 3: 11.5 µg intravitreally at 1 hour and again 2 days after fibroblast injection, control eyes 77.8%, p<0.05) [%]
O=c1c(-c2ccc(O)cc2)coc2cc(O)cc(O)c12 [genistein, 5,7-dihydroxy-3-(4-hydroxyphenyl)-4H-1-benzopyran-4-one] | nontoxic to the retina | no effect | no effect | no effect | no effect | reduced | decreased staining at each molecular weight | reduced | decreased | reduced this increase | fewer immunopositive cells were detected |  |  | 
COC1C=CC=C(C)C(=O)NC2=CC(=O)C=C(C2=O)C(OC)C(C)CC(OC)C(OC)C(C)C=C(C)C1OC(N)=O (centres unmarked) [HA, Herbimycin A] |  |  |  |  |  |  |  |  |  |  |  | 0 | 10 | 22.2
